For one experiment, the target named is T1, CLR/RAMP2 receptor (Homo sapiens, UniProt O60895+Q16602).
T1 construct: host or cells: CHO-K1 cells
In words: CLR/RAMP2 arrestin receptor activation assay (agonist). As to conditions: CHO-K1, read-out: CLR/RAMP 2 Max Activity % of positive control, CHO-K1 cells; % of positive control (ADM). It counts as cell-based.

The next experiment deals with CLR/RAMP1 receptor (Homo sapiens, UniProt O60894+Q16602). The experiment is described as follows: CLR/RAMP1 cAMP receptor activation assay (agonist). It counts as cell-based. The arrangement: host or cells: 1321N1 cells. To be noted: % of positive control (β-CGRP).
Sequence of CLR/RAMP1 receptor (Q16602 23-461): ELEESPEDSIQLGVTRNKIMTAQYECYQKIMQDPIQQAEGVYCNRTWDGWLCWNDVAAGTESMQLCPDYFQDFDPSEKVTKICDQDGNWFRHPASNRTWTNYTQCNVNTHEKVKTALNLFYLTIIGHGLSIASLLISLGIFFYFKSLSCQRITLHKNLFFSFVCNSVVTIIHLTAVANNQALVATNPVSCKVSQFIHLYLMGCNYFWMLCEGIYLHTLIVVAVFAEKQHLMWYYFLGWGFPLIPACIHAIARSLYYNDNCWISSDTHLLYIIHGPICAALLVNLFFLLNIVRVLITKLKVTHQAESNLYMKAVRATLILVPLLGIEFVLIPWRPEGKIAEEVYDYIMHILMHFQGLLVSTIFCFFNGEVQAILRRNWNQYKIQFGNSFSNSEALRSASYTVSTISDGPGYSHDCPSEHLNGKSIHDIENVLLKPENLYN
Sequence of CLR/RAMP1 receptor (O60894 27-148): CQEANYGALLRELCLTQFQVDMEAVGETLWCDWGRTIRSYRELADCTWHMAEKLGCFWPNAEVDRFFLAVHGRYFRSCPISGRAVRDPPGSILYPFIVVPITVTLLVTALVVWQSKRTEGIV
Setting [1] is: 1321-N1, read-out: CLR/RAMP 1 Max Activity % of positive control, 1321N1 cells.

Where two headings read alike, the source gives them in different places. Positions of bridges follow the written chain, without caps; N, C: chain ends. Non-standard residues stand in square brackets, D forms with d. Residues, ends and D or L forms follow the SMILES beside them. *: point of attachment. Palmitoyl = CCCCCCCCCCCCCCCC(=O)*; AEEA = NCCOCCOCC(=O)O

T1 sequence (Q16602 23-461): as the sequence (Q16602 23-461) above
T1 sequence (O60895 43-175): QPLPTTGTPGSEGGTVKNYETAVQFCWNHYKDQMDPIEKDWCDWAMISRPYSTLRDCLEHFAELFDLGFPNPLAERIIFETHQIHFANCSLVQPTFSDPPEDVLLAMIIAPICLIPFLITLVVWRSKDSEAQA

For the compound `CCCCCCCCCCCCCCCC(=O)NCCCC[C@H](NC(=O)COCCOCCN)C(=O)NCC(=O)N[C@H]1CSSC[C@@H](C(=O)N[C@H](C(=O)N[C@H](C(=O)N[C@@H](CCC(N)=O)C(=O)N[C@@H](CCCCN)C(=O)N[C@@H](CC(C)C)C(=O)N[C@@H](C)C(=O)N[C@@H](Cc2c[nH]cn2)C(=O)N[C@@H](CCC(N)=O)C(=O)N[C@H](C(=O)N[C@@H](Cc2ccc(O)cc2)C(=O)N[C@@H](CCC(N)=O)C(=O)N[C@@H](Cc2ccccc2)C(=O)N[C@H](C(=O)N[C@@H](CC(=O)O)C(=O)N[C@@H](CCCCN)C(=O)NCC(=O)N[C@@H](CCCNC(=N)N)C(=O)N[C@@H](CCC(N)=O)C(=O)N[C@@H](CC(=O)O)C(=O)N[C@@H](CO)C(=O)N[C@@H](C)C(=O)N2CCC[C@H]2C(=O)N[C@H](C(=O)N[C@@H](CC(=O)O)C(=O)N2CCC[C@H]2C(=O)N[C@@H](CO)C(=O)N[C@@H](CO)C(=O)N2CCC[C@H]2C(=O)N[C@@H](Cc2c[nH]cn2)C(=O)N[C@@H](CO)C(=O)N[C@@H](Cc2ccc(O)cc2)C(N)=O)C(C)C)[C@@H](C)O)[C@@H](C)CC)C(C)C)[C@@H](C)O)NC(=O)[C@H]([C@@H](C)O)NC(=O)CNC(=O)[C@H](Cc2ccccc2)NC(=O)[C@H](CCCNC(=N)N)NC1=O` [SEQ ID NO: 68], the Emax on CLR/RAMP2 receptor was 70%. Consider `CCCCCCCCCCCCCCCC(=O)NCCCC[C@H](NC(=O)COCCOCCN)C(=O)N[C@H]1CSSC[C@@H](C(=O)N[C@H](C(=O)N[C@H](C(=O)N[C@@H](CCC(N)=O)C(=O)N[C@@H](CCCCN)C(=O)N[C@@H](CC(C)C)C(=O)N[C@@H](C)C(=O)N[C@@H](Cc2c[nH]cn2)C(=O)N[C@@H](CCC(N)=O)C(=O)N[C@H](C(=O)N[C@@H](Cc2ccc(O)cc2)C(=O)N[C@@H](CCC(N)=O)C(=O)N[C@@H](Cc2ccccc2)C(=O)N[C@H](C(=O)N[C@@H](CC(=O)O)C(=O)N[C@@H](CCCCN)C(=O)N[C@@H](CC(=O)O)C(=O)N[C@@H](CCCCN)C(=O)N[C@@H](CC(=O)O)C(=O)N[C@@H](CC(N)=O)C(=O)N[C@@H](CO)C(=O)N[C@@H](C)C(=O)N2CCC[C@H]2C(=O)N[C@H](C(=O)N[C@@H](CC(=O)O)C(=O)N2CCC[C@H]2C(=O)N[C@@H](CO)C(=O)N[C@@H](CO)C(=O)N2CCC[C@H]2C(=O)N[C@@H](Cc2c[nH]cn2)C(=O)N[C@@H](CO)C(=O)N[C@@H](Cc2ccc(O)cc2)C(N)=O)C(C)C)[C@@H](C)O)[C@@H](C)CC)C(C)C)[C@@H](C)O)NC(=O)[C@H]([C@@H](C)O)NC(=O)CNC(=O)[C@H](Cc2ccccc2)NC(=O)[C@H](CCCNC(=N)N)NC1=O` [SEQ ID NO: 43] (H-[AEEA]K(Palmitoyl)CRFGTCTVQKLAHQIYQFTDKDKDNSAPVDPSSPHSY-NH2; disulfide 3-8), for which the Emax was found to be 30% at CLR/RAMP2 receptor and 39% on CLR/RAMP1 receptor (setting [1]). Consider `CSCC[C@H](NC(=O)CNC(=O)CNC(=O)[C@H](CO)NC(=O)[C@H](CCCNC(=N)N)NC(=O)[C@H](CO)NC(=O)[C@H](CC(C)C)NC(=O)[C@H](CC(C)C)NC(=O)CNC(=O)[C@H](C)NC(=O)[C@H](CC(C)C)NC(=O)[C@H](CCCNC(=N)N)NC(=O)[C@H](Cc1c[nH]cn1)NC(=O)[C@@H](NC(=O)[C@@H](NC(=O)[C@@H]1CSSC[C@H](NC(=O)[C@H](C)N)C(=O)N[C@@H](CC(N)=O)C(=O)N[C@@H]([C@@H](C)O)C(=O)N[C@@H](C)C(=O)N[C@@H]([C@@H](C)O)C(=O)N1)C(C)C)[C@@H](C)O)C(=O)N[C@H](C(=O)N[C@@H](CCCCN)C(=O)N[C@@H](CO)C(=O)N[C@@H](CC(N)=O)C(=O)N[C@@H](Cc1ccccc1)C(=O)N[C@H](C(=O)N1CCC[C@H]1C(=O)N[C@H](C(=O)N[C@@H](CC(N)=O)C(=O)N[C@H](C(=O)NCC(=O)N[C@@H](CO)C(=O)N[C@@H](CCCCN)C(=O)N[C@@H](C)C(=O)N[C@@H](Cc1ccccc1)C(N)=O)C(C)C)[C@@H](C)O)C(C)C)C(C)C` [Wild type CGRP-β positive, reference compound], for which, on CLR/RAMP1 receptor (1321-N1, 1321N1 cells, read-out: CLR/RAMP 1 Max Activity % of positive control), the Emax was 100%.

As for `CCCCCCCCCCCCCCCC(=O)NCCCC[C@H](NC(=O)COCCOCCN)C(=O)NCC(=O)N[C@H]1CSSC[C@@H](C(=O)N[C@H](C(=O)N[C@H](C(=O)N[C@@H](CCC(N)=O)C(=O)N[C@@H](CCCCN)C(=O)N[C@@H](CC(C)C)C(=O)N[C@@H](C)C(=O)N[C@@H](Cc2c[nH]cn2)C(=O)N[C@@H](CCC(N)=O)C(=O)N[C@H](C(=O)N[C@@H](Cc2ccc(O)cc2)C(=O)N[C@@H](CCC(N)=O)C(=O)N[C@@H](Cc2ccccc2)C(=O)N[C@H](C(=O)N[C@@H](CC(=O)O)C(=O)N[C@@H](CCCCN)C(=O)N[C@@H](CC(=O)O)C(=O)N[C@@H](CCCCN)C(=O)N[C@@H](CC(=O)O)C(=O)N[C@@H](CO)C(=O)N[C@@H](C)C(=O)N2CCC[C@H]2C(=O)N[C@H](C(=O)N[C@@H](CC(=O)O)C(=O)N2CCC[C@H]2C(=O)N[C@@H](CO)C(=O)N[C@@H](CO)C(=O)N2CCC[C@H]2C(=O)N[C@@H](Cc2c[nH]cn2)C(=O)N[C@@H](CO)C(=O)N[C@@H](Cc2ccc(O)cc2)C(N)=O)C(C)C)[C@@H](C)O)[C@@H](C)CC)C(C)C)[C@@H](C)O)NC(=O)[C@H]([C@@H](C)O)NC(=O)CNC(=O)[C@H](Cc2ccccc2)NC(=O)[C@H](CCCNC(=N)N)NC1=O` [SEQ ID NO: 46] (H-[AEEA]K(Palmitoyl)GCRFGTCTVQKLAHQIYQFTDKDKDSAPVDPSSPHSY-NH2; disulfide 4-9), the Emax turned out to be 104% on CLR/RAMP2 receptor and 60% at CLR/RAMP1 receptor (setting [1]).

For `CSCC[C@H](NC(=O)[C@H](CC(C)C)NC(=O)[C@H](CCC(N)=O)NC(=O)[C@H](Cc1c[nH]c2ccccc12)NC(=O)[C@H](CC(C)C)NC(=O)[C@H](Cc1c[nH]cn1)NC(=O)[C@H](C)NC(=O)[C@H](CC(C)C)NC(=O)[C@H](CCCCN)NC(=O)[C@H](CCC(N)=O)NC(=O)[C@@H](NC(=O)[C@@H](NC(=O)[C@@H]1CSSC[C@H](NC(=O)CNC(=O)[C@@H](NC(C)=O)C(C)C)C(=O)N[C@@H](CCCNC(=N)N)C(=O)N[C@@H](Cc2ccccc2)C(=O)NCC(=O)N[C@@H]([C@@H](C)O)C(=O)N1)[C@@H](C)O)C(C)C)C(=O)NCC(=O)N1CCC[C@H]1C(=O)N[C@@H](C)C(=O)NCC(=O)N[C@@H](CCCNC(=N)N)C(=O)N[C@@H](CCC(N)=O)C(=O)N[C@@H](CC(=O)O)C(=O)N[C@@H](CO)C(=O)N[C@@H](C)C(=O)N1CCC[C@H]1C(=O)N[C@H](C(=O)N[C@@H](CC(=O)O)C(=O)N1CCC[C@H]1C(=O)N[C@@H](CO)C(=O)N[C@@H](CO)C(=O)N1CCC[C@H]1C(=O)N[C@@H](Cc1c[nH]cn1)C(=O)N[C@@H](CO)C(=O)N[C@@H](Cc1ccc(O)cc1)C(N)=O)C(C)C` [SEQ ID NO: 58], at CLR/RAMP1 receptor (setting [1]), the Emax is 0%.
